Source: patent publication US4404138A, “3-[2-(Azabicyclo) ethyl]-1,2,3,4-tetrahydro-5H-[1]benzopyrano[3,4-c]pyridin-5-ones” (Warner-Lambert Company, priority 1982, dated 1983)

These compounds were tested on Conscious guinea pigs exposed to an aerosol of methacholine (assay: Methacholine aerosol collapse time in conscious guinea pigs (anticholinergic test)). Details: 25 mg/kg intraperitoneally; 10 minutes methacholine aerosol; time not given.
Format: in vivo
Experimental: Conscious guinea pigs, six at a time, are put into a sealed chamber and exposed for 10 minutes to an aerosol of methacholine.
In the case of COc1cc2oc(=O)c3c(c2cc1OC)CCN(CCN1CC2CCC(CC2)C1)C3.Cl.Cl [R1=MeO, R2=MeO, R3=H, X=drawing 10, 3-[2-(3-Azabicyclo[3.2.2]non-3-yl)ethyl]-1,2,3,4-tetrahydro-8,9-dimethoxy-5H-[1]benzopyrano[3,4-c]pyridin-5-one dihydrochloride], the “(Minutes Protection), given in words” value is reported as “Active”.

Same assay, conditions: collapse time; 25 mg/kg intraperitoneally; 10 minutes methacholine aerosol; Control 1.9 to 2.0
In the case of COc1ccc2c3c(c(=O)oc2c1OC)CN(CCN1CC2CCC(CC2)C1)CC3.Cl.Cl [R1=H, R2=MeO, R3=MeO, X=drawing 10, 3-[2-(3-Azabicyclo[3.2.2]non-3-yl)ethyl]-1,2,3,4-tetrahydro-7,8-dimethoxy-5H-[1]benzopyrano[3,4-c]pyridin-5-one dihydrochloride], the “(Minutes Protection)” value is reported as 3.0 min. For COc1ccc2c3c(c(=O)oc2c1)CN(CCN1CC2CCC1CC2)CC3 [R1=H, R2=MeO, R3=H, X=drawing 11, 3-[2-(2-Azabicyclo[2.2.2]oct-2-yl)ethyl]-1,2,3,4-tetrahydro-8-methoxy-5H-[1]benzopyrano[3,4-c]pyridin-5-one], the “(Minutes Protection)” value was 10.0 min. CC(C)(C)c1ccc2c3c(c(=O)oc2c1)CN(CCN1CC2CCC(CC2)C1)CC3.Cl.Cl [R1=H, R2=CMe3, R3=H, X=drawing 10, 3-[2-(3-Azabicyclo[3.2.2]non-3-yl)ethyl]-8-(1,1-dimethylethyl)-1,2,3,4-tetrahydro-5H-[1]benzopyrano[3,4-c]pyridin-5-one, dihydrochloride] was tested, and the “(Minutes Protection)” value was 3.4 min. In the case of CCOc1cc2oc(=O)c3c(c2cc1OCC)CCN(CCN1CC2CCC(CC2)C1)C3 [R1=EtO, R2=EtO, R3=H, X=drawing 10, 3-[2-(3-Azabicyclo[3.2.2]non-3-yl)ethyl]-1,2,3,4-tetrahydro-8,9-diethoxy-5H-[1]benzopyrano[3,4-c]pyridin-5-one], the “(Minutes Protection)” value is reported as 6.3 min. In the case of Cc1ccc2c3c(c(=O)oc2c1)CN(CCN1CC2CCCC(C2)C1)CC3 [R1=H, R2=Me, R3=H, X=drawing 12, 3-[2-(3-Azabicyclo[3.3.1]non-3-yl)ethyl]-1,2,3,4-tetrahydro-8-methyl-5H-[1]benzopyrano[3,4-c]pyridin-5-one], the “(Minutes Protection)” value is reported as 3.1 min. In the case of Cc1cc2oc(=O)c3c(c2cc1N)CCN(CCN1CC2CCC(CC2)C1)C3 [R1=NH2, R2=Me, R3=H, X=drawing 10, 9-Amino-3-[2-(3-azabicyclo[3.2.2]non-3-yl)ethyl]-1,2,3,4-tetrahydro-8-methyl-5H-[1]benzopyrano[3,4-c]pyridin-5-one], the “(Minutes Protection)” value is reported as 1.9 min. For Cc1cc2oc(=O)c3c(c2cc1[N+](=O)[O-])CCN(CCN1CC2CCC(CC2)C1)C3 [R1=NO2, R2=Me, R3=H, X=drawing 10, 3-[2-(3-Azabicyclo[3.2.2]non-3-yl)ethyl]-1,2,3,4-tetrahydro-8-methyl-9-nitro-5H-[1]benzopyrano[3,4-c]pyridin-5-one], the “(Minutes Protection)” value was 1.9 min. For O=c1oc2cc(O)ccc2c2c1CN(CCN1CC3CCC(CC3)C1)CC2 [R1=H, R2=OH, R3=H, X=drawing 10], the “(Minutes Protection)” value was 6.1 min. In the case of COc1cc2oc(=O)c3c(c2cc1OC)CCN(CCN1CC2CCC1CC2)C3 [R1=MeO, R2=MeO, R3=H, X=drawing 11, 3-[2-(2-Azabicyclo[2.2.2]oct-2-yl)ethyl]-1,2,3,4-tetrahydro-8,9-dimethoxy-5H-[1]benzopyrano[3,4-c]pyridine-5-one], the “(Minutes Protection)” value is reported as 7.6 min. In the case of COc1ccc2c3c(c(=O)oc2c1)CN(CCN1CC2CCCC(C2)C1)CC3 [R1=H, R2=MeO, R3=H, X=drawing 12, 3-[2-(3-Azabicyclo[3.3.1]non-3-yl)ethyl]-1,2,3,4-tetrahydro-8-methoxy-5H-[1]benzopyrano[3,4-c]pyridin-5-one], the “(Minutes Protection)” value is reported as 7.3 min. With Cc1cc2oc(=O)c3c(c2cc1NC(=O)c1ccccc1)CCN(CCN1CC2CCC(CC2)C1)C3 [R1=NHCOPh, R2=Me, R3=H, X=drawing 10, N-{3-[2-(3-Azabicyclo[3.2.2]non-3-yl)ethyl]-1,3,4,5-tetrahydro-8-methyl-5-oxo-2H-[1]benzopyrano[3,4-c]pyridin-9-yl}-benzamide] the “(Minutes Protection)” value was 3.8 min.
